Mutagenic call data for seven compounds are collected here from PubChem BioAssay AID1259407 (Chemical Carcinogenesis Research Information System (CCRIS), 2018).

The source made the active and inactive calls. No rule for the calls is given here.

In the series the test system is CCRIS mutagenicity, Ames/micronucleus/aberration tests. As to the kind of experiment: CCRIS mutagenicity studies. The conditions noted are these: Test System: AMES SALMONELLA TYPHIMURIUM
[1] abbreviates: Strain/Indicator: TA100, Metabolic Activation: NONE, Method: PREINCUBATION
Where [2] appears, read: Strain/Indicator: TA100, Metabolic Activation: NONE, Method: STANDARD PLATE.

Take `O=[N+]([O-])c1ccc(N=N/C(=N\Nc2ccc(I)cc2)c2ccccc2)cc1`: the mutagenic call by setting is: (Strain/Indicator: TA97, Metabolic Activation: NONE, Method: SPOT TEST) “inactive; negative”; (Strain/Indicator: TA97, Metabolic Activation: RAT, LIVER, S-9, PHENOBARBITAL, Method: SPOT TEST) “inactive; negative”; (Strain/Indicator: TA98, Metabolic Activation: NONE, Method: PREINCUBATION) “inactive; negative”; (Strain/Indicator: TA98, Metabolic Activation: NONE, Method: SPOT TEST) “inactive; negative”; (Strain/Indicator: TA98, Metabolic Activation: RAT, LIVER, S-9, PHENOBARBITAL, Method: PREINCUBATION) “inactive; negative”; (Strain/Indicator: TA98, Metabolic Activation: RAT, LIVER, S-9, PHENOBARBITAL, Method: SPOT TEST) “inactive; negative”. Further, the mutagenic call by setting is: under setting [1], “inactive; negative”; (Strain/Indicator: TA100, Metabolic Activation: NONE, Method: SPOT TEST) “inactive; negative”; (Strain/Indicator: TA100, Metabolic Activation: RAT, LIVER, S-9, PHENOBARBITAL, Method: PREINCUBATION) “inactive; negative”; (Strain/Indicator: TA100, Metabolic Activation: RAT, LIVER, S-9, PHENOBARBITAL, Method: SPOT TEST) “inactive; negative”; (Strain/Indicator: TA102, Metabolic Activation: NONE, Method: SPOT TEST) “inactive; negative”; (Strain/Indicator: TA102, Metabolic Activation: RAT, LIVER, S-9, PHENOBARBITAL, Method: SPOT TEST) “inactive; negative”.
For the compound `COC(=O)[C@H](C)CN=[N+]=[N-]`, the mutagenic call (Strain/Indicator: TA100, Metabolic Activation: RAT, LIVER, S-9, PCB, Method: PREINCUBATION) was “active; positive”.
With `Nc1nc(-c2cccnc2)cs1`, the mutagenic call (Strain/Indicator: TA1538, Metabolic Activation: RAT, LIVER, S-9, AROCLOR 1254, Method: STANDARD PLATE) was “inactive; negative”.
For the compound `O=C(NCc1ccccc1)C(Cl)c1ccccc1` (configuration not stated), the mutagenic call (Strain/Indicator: TA100, Metabolic Activation: MOUSE, LIVER, S-9, AROCLOR 1254, Method: STANDARD PLATE) is “inactive; negative” and the mutagenic call under setting [2] is “active; positive”.
Turning to `CC(=O)N[C@@H](CS/C(Cl)=C(\Cl)C(Cl)=C(Cl)Cl)C(=O)O`, the mutagenic call is “inactive; negative” under setting [1]; “active; positive” (Strain/Indicator: TA100, Metabolic Activation: RAT, KIDNEY, CYTOSOL, Method: PREINCUBATION); “active; positive” (Strain/Indicator: TA100, Metabolic Activation: RAT, LIVER, S-9, AROCLOR 1254 (10%), Method: PREINCUBATION).
For `Cc1ccc([N+](=O)[O-])cc1N=[N+]([O-])c1cc([N+](=O)[O-])ccc1C`, the mutagenic call was “inactive; negative” (Strain/Indicator: TA98, Metabolic Activation: NONE, Method: SUSPENSION/PLATE); “inactive; negative” (Strain/Indicator: TA98, Metabolic Activation: RAT, LIVER, S-9, PHENOBARBITAL AND 5,6-BENZOFLAVONE, Method: SUSPENSION/PLATE); “inactive; negative” (Strain/Indicator: TA100, Metabolic Activation: NONE, Method: SUSPENSION/PLATE); “inactive; negative” (Strain/Indicator: TA100, Metabolic Activation: RAT, LIVER, S-9, PHENOBARBITAL AND 5,6-BENZOFLAVONE, Method: SUSPENSION/PLATE).
On to `C=C(C)c1ccc(C)c2ccc(C=O)c-2c1`, for which the mutagenic call was “inactive; negative” (Strain/Indicator: TA98, Metabolic Activation: NONE, Method: STANDARD PLATE); “active; positive” (Strain/Indicator: TA98, Metabolic Activation: RAT, LIVER, S-9, AROCLOR 1254, Method: STANDARD PLATE); “inactive; negative” under setting [2]; “active; positive” (Strain/Indicator: TA100, Metabolic Activation: RAT, LIVER, S-9, AROCLOR 1254, Method: STANDARD PLATE).
